Each molecule was assayed against T1, TLR7 (Homo sapiens, UniProt Q9NYK1) (assay: HEK Cell Assay (TLR7/NFKb HEK reporter cells, Steady-Glo)). Conditions: compound 30 min, then R*48 agonist 5 hours, Steady-Glo readout, read-out: Potency.
T1 construct: expressed in transfected cells; host or cells: HEK cells carrying TLR7 and an NF-kB reporter read with Steady-Glo
T1 sequence (Q9NYK1 27-1049): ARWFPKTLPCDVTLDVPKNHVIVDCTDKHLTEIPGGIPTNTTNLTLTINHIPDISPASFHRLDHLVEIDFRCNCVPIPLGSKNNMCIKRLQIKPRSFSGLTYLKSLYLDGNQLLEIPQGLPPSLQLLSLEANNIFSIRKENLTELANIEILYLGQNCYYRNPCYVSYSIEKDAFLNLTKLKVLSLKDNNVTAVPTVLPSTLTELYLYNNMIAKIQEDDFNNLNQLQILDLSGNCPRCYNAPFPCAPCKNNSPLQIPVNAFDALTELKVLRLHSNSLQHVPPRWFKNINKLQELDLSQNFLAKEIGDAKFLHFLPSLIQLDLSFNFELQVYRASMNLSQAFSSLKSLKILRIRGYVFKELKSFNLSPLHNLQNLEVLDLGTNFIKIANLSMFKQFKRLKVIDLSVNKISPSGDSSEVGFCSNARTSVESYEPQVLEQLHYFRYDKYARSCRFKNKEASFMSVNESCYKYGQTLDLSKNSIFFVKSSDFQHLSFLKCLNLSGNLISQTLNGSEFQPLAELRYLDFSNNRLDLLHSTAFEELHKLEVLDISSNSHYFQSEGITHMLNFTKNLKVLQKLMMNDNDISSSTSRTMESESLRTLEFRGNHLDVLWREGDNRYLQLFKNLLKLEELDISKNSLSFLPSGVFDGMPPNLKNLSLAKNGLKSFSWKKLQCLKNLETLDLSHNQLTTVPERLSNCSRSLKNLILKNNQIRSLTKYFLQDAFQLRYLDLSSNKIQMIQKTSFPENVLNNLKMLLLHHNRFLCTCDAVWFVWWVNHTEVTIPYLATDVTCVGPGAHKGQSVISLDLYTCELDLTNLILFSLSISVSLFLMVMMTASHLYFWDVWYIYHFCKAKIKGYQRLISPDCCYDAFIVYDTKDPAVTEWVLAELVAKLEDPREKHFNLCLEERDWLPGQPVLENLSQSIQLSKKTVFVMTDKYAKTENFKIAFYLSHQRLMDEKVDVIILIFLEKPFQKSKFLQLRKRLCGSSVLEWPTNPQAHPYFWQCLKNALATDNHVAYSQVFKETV
Type: cell-based
Protocol: Example 32: HEK Cell Assay
Into 384 CulturePlates (Corning 3707) was placed 5000 c/w of TLR7/NFKb HEK cells in 30 uL DMEM without Phenil red (gibco #31053) and 10% i.a. FCS and 2 mM L-ZGLutamin. The cells were incubated for 24 h at 37 degrees Celsius, 10% carbon dioxide and 90% relative humidity, 3 uL of controls, standards, and compounds were dispensed to wells, incubated for 30 min then 3 uL of R*48 agonist in 20 mM Hepes was added. After incubation for 5 hours, it was allowed to stand at room temperature for 15 min, 10 uL of Steady-Glo substrate reagent was added and shake assay plate for 5 min at 1500 rpm. The assay plate was allowed to sit for 30 min at room temperature and then read plate on EnVision.

| SMILES | IC50 |
| --- | --- |
| C[C@@H]1C[C@@H](c2ccc(C#N)c3ncccc23)CN(CC(=O)N2CCC(N(C)C)CC2)C1 (relative stereo) [Compound 71, trans-5-(1-{2-[4-(dimethylamino)piperidin-1-yl]-2-oxoethyl}-5-methylpiperidin-3-yl) quinoline-8-carbonitrile] | 1000 to 20000 nM |
| C[C@@H]1C[C@H](c2ccc(C#N)c3ncccc23)CN(CC(=O)NCCN2CCN(C)CC2)C1 (relative stereo) [Compound 72, cis-2-[3-(8-Cyano-quinolin-5-yl)-5-methyl-piperidin-1-yl]-N-[2-(4-methyl-piperazin-1-yl)-ethyl]-acetamide] | 1000 to 20000 nM |
| C[C@@H]1C[C@@H](c2ccc(C#N)c3ncccc23)CN(CC(=O)NCCN2CCN(C)CC2)C1 (relative stereo) [Compound 73, trans-2-[3-(8-Cyano-quinolin-5-yl)-5-methyl-piperidin-1-yl]-N-[2-(4-methyl-piperazin-1-yl)-ethyl]-acetamide] | 1000 to 20000 nM |
| C[C@@H]1C[C@H](c2ccc(C#N)c3ncccc23)CN(CC(=O)NCC2CCN(C)CC2)C1 (relative stereo) [Compound 74, cis-2-[3-(8-Cyano-quinolin-5-yl)-5-methyl-piperidin-1-yl]-N-(1-methyl-piperidin-4-ylmethyl)-acetamide] | 1000 to 20000 nM |
| C[C@@H]1C[C@@H](c2ccc(C#N)c3ncccc23)CN(CC(=O)NCC2CCN(C)CC2)C1 (relative stereo) [Compound 75, trans-2-[3-(8-Cyano-quinolin-5-yl)-5-methyl-piperidin-1-yl]-N-(1-methyl-piperidin-4-ylmethyl)-acetamide] | 1000 to 20000 nM |
| C[C@@H]1C[C@H](c2ccc(C#N)c3ncccc23)CN(CC(=O)Nc2cnn(C)c2)C1 (relative stereo) [Compound 76, cis-2-[3-(8-Cyano-quinolin-5-yl)-5-methyl-piperidin-1-yl]-N-(1-methyl-1H-pyrazol-4-yl)-acetamide] | > 20000 nM |
| C[C@@H]1C[C@@H](c2ccc(C#N)c3ncccc23)CN(CC(=O)Nc2cnn(C)c2)C1 (relative stereo) [Compound 77, trans-2-[3-(8-Cyano-quinolin-5-yl)-5-methyl-piperidin-1-yl]-N-(1-methyl-1H-pyrazol-4-yl)-acetamide] | > 20000 nM |
| C[C@@H]1C[C@H](c2ccc(C#N)c3ncccc23)CN(C(=O)CC2[C@H]3CN(C)C[C@@H]23)C1 (relative stereo) [Compound 79] | < 1000 nM |
| C[C@@H]1C[C@H](c2ccc(C#N)c3ncccc23)CN(C(=O)Cc2cnn(C)c2)C1 (relative stereo) [Compound 107, cis-5-Methyl-1-[2-(1-methyl-1H-pyrazol-4-yl)-acetyl]-piperidin-3-yl-quinoline-8-carbonitrile] | > 20000 nM |
| C[C@@H]1C[C@H](c2ccc(C#N)c3ncccc23)CN(C(=O)c2cnn(C)c2)C1 (relative stereo) [Compound 108, cis-5-Methyl-1-(1-methyl-H-pyrazole-4-carbonyl)-piperidin-3-yl-quinoline-8-carbonitrile] | 1000 to 20000 nM |
| COCCN[C@@H]1C[C@H](C)C[C@H](c2ccc(C#N)c3nccnc23)C1 (relative stereo) [Compound 133, 8-[(cis-1,3,5)-3-[(2-methoxyethyl)amino]-5-methylcyclohexyl]quinoxaline-5-carbonitrile] | < 1000 nM |
| COCCN[C@@H]1C[C@H](C)C[C@@H](c2ccc(C#N)c3nccnc23)C1 (relative stereo) [Compound 134, 8-[(1,trans-3,cis-5)-3-[(2-methoxyethyl)amino]-5-methylcyclohexyl]quinoxaline-5-carbonitrile] | 1000 to 20000 nM |
| CC1CC(c2ccc(C(F)(F)F)c3ncccc23)CN(C(=O)CCN2CCN(C)CC2)C1 (stereo in doubt) [Compound 45, 3-(4-Methyl-piperazin-1-yl)-1-[(3S,5S)-3-methyl-5-(8-trifluoromethyl-quinolin-5-yl)-piperidin-1-yl]-propan-1-one] | 1000 to 20000 nM |
| CC1CC(c2ccc(C#N)c3ncccc23)CN(C(=O)CC2CCN(C)CC2)C1 (stereo in doubt) [Compound 55, 5-{(3S,5R)-5-Methyl-1-[2-(1-methyl-piperidin-4-yl)-acetyl]-piperidin-3-yl}-quinoline-8-carbonitrile] | < 1000 nM |
| C[C@@H]1C[C@H](c2ccc(C#N)c3ncccc23)CN(C(=O)CC2CCN(C)CC2)C1 [Compound 1] | < 1000 nM |
| C[C@@H]1CC(c2ccc(C#N)c3ncccc23)CN(C(=O)CC2CCN(C)CC2)C1 (stereo partly shown) [Compound 2] | < 1000 nM |

| SMILES | IC50 |
| --- | --- |
| CC1CC(c2ccc(C(F)(F)F)c3ncccc23)CN(C(=O)CC2CCN(C)CC2)C1 (stereo not shown) [Compound 3, 2-(1-Methyl-piperidin-4-yl)-1-[3-methyl-5-(8-trifluoromethyl-quinolin-5-yl)-piperidin-1-yl]-ethanone] | < 1000 nM |
| CC1CC(c2ccc(C(F)(F)F)c3ncccc23)CN(C(=O)CCN2CCN(C)CC2)C1 (stereo not shown) [Compound 11, 3-(4-Methyl-piperazin-1-yl)-1-[3-methyl-5-(8-trifluoromethyl-quinolin-5-yl)-piperidin-1-yl]-propan-1-one] | 1000 to 20000 nM |
| C[C@@H]1CC(c2ccc(C(F)(F)F)c3ncccc23)CN(C(=O)CCn2cccn2)C1 (stereo partly shown) [Compound 12] | > 20000 nM |
| CC1C[C@@H](c2ccc(C(F)(F)F)c3ncccc23)CN(C(=O)CN2CCOCC2)C1 (stereo partly shown) [Compound 17] | > 20000 nM |
| CC1CC(c2ccc(C(F)(F)F)c3ncccc23)CN(C(=O)CC2CC3CCC(C2)N3C)C1 (stereo not shown) [Compound 18, 2-(8-Methyl-8-aza-bicyclo[3.2.1]oct-3-yl)-1-[3-methyl-5-(8-trifluoromethyl-quinolin-5-yl)-piperidin-1-yl]-ethanone] | < 1000 nM |
| CC1C[C@@H](c2ccc(C#N)c3ncccc23)CN(C(=O)Cc2cccnc2)C1 (stereo partly shown) [Compound 21] | > 20000 nM |
| CC1CC(c2ccc(Cl)c3ncccc23)CN(C(=O)CC2CCN(C)CC2)C1 (stereo not shown) [Compound 22, 1-[3-(8-Chloro-quinolin-5-yl)-5-methyl-piperidin-1-yl]-2-(1-methyl-piperidin-4-yl)-ethanone] | < 1000 nM |
| CC1CC(c2ccc(C#N)c3ncccc23)CN(C(=O)CCC2CCN(C)CC2)C1 (stereo not shown) [Compound 23] | < 1000 nM |
| CC1C[C@H](c2ccc(C#N)c3ncccc23)CN(C(=O)CCc2cccnc2)C1 (stereo partly shown) [Compound 25] | 1000 to 20000 nM |
| CC1C[C@H](c2ccc(C#N)c3ncccc23)CN(C(=O)CC(F)(F)F)C1 (stereo partly shown) [Compound 27] | > 20000 nM |
| C[C@@H]1C[C@H](c2ccc(C#N)c3ncccc23)CN(C(=O)CC2CCN(C)C2)C1 (stereo partly drawn) [Compound 35, cis-5-Methyl-1-[2-(1-methyl-pyrrolidin-3-yl)-acetyl]-piperidin-3-yl-quinoline-8-carbonitrile] | < 1000 nM |
| C[C@@H]1C[C@H](c2ccc(C(F)(F)F)c3ncccc23)CN(C(=O)CC2CCN(C)CC2)C1 [Compound 42, 2-(1-Methyl-piperidin-4-yl)-1-[(3R,5R)-3-methyl-5-(8-trifluoromethyl-quinolin-5-yl)-piperidin-1-yl]-ethanone] | < 1000 nM |
| C[C@H]1C[C@@H](c2ccc(C(F)(F)F)c3ncccc23)CN(C(=O)CC2CCN(C)CC2)C1 [Compound 43, 2-(1-Methyl-piperidin-4-yl)-1-[(3S,5S)-3-methyl-5-(8-trifluoromethyl-quinolin-5-yl)-piperidin-1-yl]-ethanone] | 1000 to 20000 nM |
| C[C@@H]1C[C@H](c2ccc(C(F)(F)F)c3ncccc23)CN(C(=O)CCN2CCN(C)CC2)C1 [Compound 44, 3-(4-Methyl-piperazin-1-yl)-1-[(3R,5R)-3-methyl-5-(8-trifluoromethyl-quinolin-5-yl)-piperidin-1-yl]-propan-1-one] | < 1000 nM |
| CC(C)N1CCC(CC(=O)N2C[C@H](C)C[C@H](c3ccc(C#N)c4ncccc34)C2)CC1 [Compound 46, 5-{(3R,5R)-1-[2-(1-Isopropyl-piperidin-4-yl)-acetyl]-5-methyl-piperidin-3-yl}-quinoline-8-carbonitrile] | < 1000 nM |

Source: patent US11512069B2, “TLR7/8 antagonists and uses thereof” (Merck Patent GmbH, priority 2016, dated 2022)
